The record followed here is ChEMBL document CHEMBL1142904, “Modulating effects of a novel skin-lightening agent, alpha-lipoic acid derivative, on melanin production by the formation of DOPA conjugate products” (Bioorg Med Chem, 2007).

One data set relates to B16. The data set can be described thus: Inhibition of melanin synthesis in mouse B16 cells at 75 uM after 3 days. It is filed as functional. Particulars: B16, 72 h.
For data set [1], the target named is T1, Tyrosinase (Agaricus bisporus) (UniProt O42713).
T1 sequence (whole entry): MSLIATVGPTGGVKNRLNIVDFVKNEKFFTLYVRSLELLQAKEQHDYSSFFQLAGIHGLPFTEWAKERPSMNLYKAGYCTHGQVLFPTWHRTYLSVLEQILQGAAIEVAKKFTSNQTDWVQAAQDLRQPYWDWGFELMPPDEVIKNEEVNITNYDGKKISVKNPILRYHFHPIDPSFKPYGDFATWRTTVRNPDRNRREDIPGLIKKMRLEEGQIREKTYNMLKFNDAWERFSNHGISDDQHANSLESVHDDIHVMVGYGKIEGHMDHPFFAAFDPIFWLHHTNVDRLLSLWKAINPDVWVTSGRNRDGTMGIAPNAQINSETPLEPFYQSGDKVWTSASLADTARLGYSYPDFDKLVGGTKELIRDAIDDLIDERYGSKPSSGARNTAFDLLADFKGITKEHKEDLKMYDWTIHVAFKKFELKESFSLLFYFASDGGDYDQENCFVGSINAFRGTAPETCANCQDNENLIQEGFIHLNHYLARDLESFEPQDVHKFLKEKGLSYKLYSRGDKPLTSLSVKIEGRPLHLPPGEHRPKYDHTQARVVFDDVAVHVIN
The data set can be described thus: Inhibition of mushroom tyrosinase catalyzed oxidation of L-DOPA assessed as DOPAchrome formation at 120 uM.

The target in the next data set is T2, Tyrosinase (Agaricus bisporus, UniProt O42713).
T2 sequence (O42713 whole entry): T1 sequence (whole entry)
The experiment in a line: Inhibition of mushroom tyrosinase.

The target of data set [2] is T1, Tyrosinase (Agaricus bisporus). Particulars: 4 uM.
Substrate in data set [3]: N[C@@H](Cc1ccc(O)c(O)c1)C(=O)O
The data set can be described thus: Activity of mushroom tyrosinase. Particulars: Agaricus bisporus.

Substrate in data set [4]: O=C(CCCCC1CCS[Zn]S1)NC(Cc1c[nH]cn1)C(=O)O
Particulars: Agaricus bisporus; 1.3 uM.

Active and inactive are the calls of the source. The rule behind the calls is not given here.

The molecule `OC[C@H]1O[C@H](Oc2ccc(O)cc2)[C@H](O)[C@@H](O)[C@@H]1O` returned an inhibition at 75 µM in the data set on B16 of 38.3%.

Take `O=C(O)CCCC[C@@H](S)CCS` [DIHYDROLIPOIC ACID]: the result in data set [1] was Active. The molecule also returned an inhibition at 75 µM in the data set on B16 of 36.3%.

With `O=C(CCCCC1CC[S][Zn][S]1)NC(Cc1c[nH]cn1)C(=O)O` (centres undefined) [SODIUM ZINC DIHYDROLIPOYLHISTIDINATE], half-maximal inhibition on Tyrosinase (IC50) required 1300 nM. For the same molecule, the outcome in data set [1] was Active. 75 µM produced 41.5% inhibition in the data set on B16. In addition, the inhibition in data set [2] amounted to 82.9%.

B1: Tyrosinase (Agaricus bisporus), O42713 (protein)
chain: T1 sequence (whole entry)
Consider B1, for which the Km came to 860 µM in data set [3] and 4.1 µM in data set [4].
